One experiment concerns E. coli. Description: microbe, parasite or virus in culture. Particulars: Escherichia coli, read-out: E. coli IC50 μg mL-1.
For experiment [1], the system named is S. aureus. Description: microbe, parasite or virus in culture. Particulars: Staphylococcus aureus, read-out: S. aureus MIC μg mL-1.
Description: (§1) The in vitro antibacterial activity of the synthesized Ag(I) complexes was investigated against two bacterial strains: Gram (+) S. aureus and the Gram (−) E. coli. The assays were conducted using the broth microdilution method to determine both the half-maximal inhibitory concentrations (IC50) and minimal inhibitory concentrations (MIC).
The test system of experiment [2] is S. aureus. Description: microbe, parasite or virus in culture. Particulars: Staphylococcus aureus, read-out: S. aureus IC50 μg mL-1.
Description: as §1
The target in experiment [3] is T1, glutathione reductase (GR) (Escherichia coli, UniProt A0A0H3JIZ9).
T1 construct: gene gor
Description: enzyme inhibition assay with pure E. coli GR. The format is biochemical.

In experiment [4] the target is T2, thioredoxin reductase (TrxR) (Escherichia coli, UniProt P0A9P4).
T2 construct: gene trxB
Description: enzyme inhibition assay with pure E. coli TrxR. The format is biochemical.

Four compounds from article PMC12566157, “Redox-Active Quinazolinone Thioamide Ag(I) Complexes with Potent Antibacterial Activity: Mechanistic Insights and Hydrogel-Enhanced Efficacy” (Molecules, 2025) can be followed below.

T1 sequence (A0A0H3JIZ9 entry or part of it): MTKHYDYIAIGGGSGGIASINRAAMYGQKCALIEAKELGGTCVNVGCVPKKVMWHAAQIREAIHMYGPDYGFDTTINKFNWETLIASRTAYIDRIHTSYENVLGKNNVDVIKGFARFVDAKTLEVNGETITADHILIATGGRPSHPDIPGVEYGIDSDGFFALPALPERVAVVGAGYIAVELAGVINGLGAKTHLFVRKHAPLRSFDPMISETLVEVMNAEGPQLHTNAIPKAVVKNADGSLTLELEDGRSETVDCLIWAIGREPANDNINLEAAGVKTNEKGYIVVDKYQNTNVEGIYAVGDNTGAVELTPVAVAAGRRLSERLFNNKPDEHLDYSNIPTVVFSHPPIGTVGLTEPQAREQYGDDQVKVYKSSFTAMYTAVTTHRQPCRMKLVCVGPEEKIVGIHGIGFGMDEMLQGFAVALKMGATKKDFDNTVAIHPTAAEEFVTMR
T2 sequence (P0A9P4 2-321): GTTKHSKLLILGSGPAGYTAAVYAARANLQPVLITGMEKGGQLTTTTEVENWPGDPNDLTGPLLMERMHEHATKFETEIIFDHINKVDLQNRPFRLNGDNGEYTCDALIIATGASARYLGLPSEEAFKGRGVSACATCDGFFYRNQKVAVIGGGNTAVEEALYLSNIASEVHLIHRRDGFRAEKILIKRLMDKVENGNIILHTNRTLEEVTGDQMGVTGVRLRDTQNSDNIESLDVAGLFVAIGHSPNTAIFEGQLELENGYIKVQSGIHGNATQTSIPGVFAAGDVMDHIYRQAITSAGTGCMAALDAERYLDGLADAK

The term IC50 denotes the concentration that inhibits the measured activity by half. Turning to `c1ccc(P(c2ccccc2)c2ccccc2)cc1` [PPh3, thriphenylphosphine], the IC50 with E. coli and with S. aureus [2] was > 100 µg/mL each time. Besides, in the experiment with S. aureus [1], the MIC is > 100 µg/mL.
For [AgCl(mqztH)(PPh3)2] [compound 1], the results for the IC50 in experiment [3] and in experiment [4] were 65 nM and 215 nM, respectively.
As to `c1ccc(P(c2ccccc2)c2ccccc2Oc2ccccc2P(c2ccccc2)c2ccccc2)cc1` [DPEPhos, bis[(2-diphenylphosphino)phenyl]ether], the IC50 with E. coli and in the experiment on S. aureus [2] was > 100 µg/mL throughout. Further, in the experiment on S. aureus [1], the MIC is > 100 µg/mL.
Regarding `O=c1[nH]c(=S)[nH]c2ccccc12` [mqztH, 2-mercapto-4(3H)-quinazolinone], the IC50 in the experiment on E. coli and in the experiment on S. aureus [2] was > 100 µg/mL in each case. Moreover, the MIC in the experiment with S. aureus [1] is > 100 µg/mL.
